Assay results as given in US12156893B2, “Oral composition comprising lactic acid bacteria for regulating immune responses and methods related thereto” (The Regents of the University of California, priority 2016, dated 2024).

Test system: NK cells
Assay: Production of cytokines, growth factors and chemokines by NK cells treated with bacterial strains (Bio-Plex 27-plex)
Assay type: cell-based, human
Design: unit not given here
Procedure: Different strains of probiotic bacteria were tested for their ability to induce IFN-g as well as a number of important cytokines, chemokines and growth factors (Table 1). To assess the levels of each strain used in the combination we used an activation index established in the lab for the NK cells which consisted of the use of a specific ratio of several important cytokines and chemokines that prevented auto-immunity while enhancing significant activation of NK cells under pathologic conditions. Therefore, the strains were selected to: 1) provide regulated activation of NK cells when no activation of NK cells is desired; 2) when activated by cytokines and/or cross-linking of the important receptors which occurs during functional activation of NK cells in cancer is to induce maximal activation of NK cells; and 3) provide diversity for gut microflora. These criteria allow us to use bacteria to regulate the gut mucosal immunity in such a way that we will only increase NK activation when needed during infections or malignancies. In other words when there is no need for function of NK cells bacteria will regulate NK function to not induce inflammation; however, during need which occurs under the pathological conditions NK cells are triggered to function at the maximal levels. Such coordinated regulation of NK cell function should be effective in halting unwanted inflammation while providing effective and maximal immunity during disease.
Written informed consents, approved by UCLA Institutional Review Board (IRB), were obtained from healthy blood donors, and all procedures were approved by the UCLA-IRB. Peripheral blood was separated using Ficoll-Hypaque centrifugation, after which the white, cloudy layer, containing peripheral blood mononuclear cells (PBMC), was harvested, washed and re-suspended in RPMI 1640 (Invitrogen by Life Technologies, CA) supplemented with 10% FBS and plated on plastic tissue culture dishes. After 1-2 hours of incubation, non-adherent, human peripheral blood lymphocytes (PBL) were collected. NK cells were negatively selected and isolated from PBLs using the EasySep® Human NK cell enrichment kit purchased from Stem Cell Technologies (Vancouver, BC, Canada). Isolated NK cells were stained with anti-CD16 antibody, to measure NK cell purity using flow cytometric analysis. The isolated NK cell population was greater than 90% purity. Purified NK cells were cultured in RPMI Medium 1640 supplemented with 10% FBS (Gemini Bio-Products, CA), 1% antibiotic antimycotic, 1% sodium pyruvate, and 1% MEM non-essential amino acids (Invitrogen, Life Technologies, CA).
Purified NK cells from healthy donors were left untreated or treated with IL-2 (1000 units/ml) or the combination of anti-CD16 mAb (3 μg/ml) and IL-2 (1000 units/ml) in the presence or absence of bacterial strains at 1:5 ratio (NK cell: bacteria) for 12-18 hours. Afterwards, the levels of cytokines, growth factors and chemokines were determined using Bio-Plex Pro Human Cytokine 27-plex Assay Kit.

[1] = Treatment NK (no activation), bacteria 1:5 NK cell:bacteria, 12-18 hours
[2] = Treatment NK + IL-2 (1000 units/ml), bacteria 1:5, 12-18 hours
[3] = Treatment NK + IL-2 + anti-CD16 mAb (3 μg/ml), bacteria 1:5, 12-18 hours

Bifidobacterium breve [B. breve]
Eotaxin [1]: 15
G-CSF [1]: 363
GM-CSF [1]: 101
IFN-γ [1]: 99
IL-1B [1]: 200
IL-1ra [1]: 196
IL-6 [1]: 9726
IL-8 [1]: 3975
IL-10 [1]: 127
IL-12p70 [1]: 10
IL-13 [1]: 5
IL-17 [1]: 53
IP-10 [1]: 32
MCP-1 [1]: 265
RANTES [1]: 1662
TNF-α [1]: 2904
Eotaxin [2]: 22
G-CSF [2]: 138
GM-CSF [2]: 127
IFN-γ [2]: 284
IL-1B [2]: 165
IL-1ra [2]: 470
IL-6 [2]: 3402
IL-8 [2]: 1912
IL-10 [2]: 36
IL-12p70 [2]: 21
IL-13 [2]: 9
IL-17 [2]: 57
IP-10 [2]: 35
MCP-1 [2]: 72
RANTES [2]: 1988
TNF-α [2]: 1868
Eotaxin [3]: 29
G-CSF [3]: 289
GM-CSF [3]: 180
IFN-γ [3]: 844
IL-1B [3]: 421
IL-1ra [3]: 565
IL-6 [3]: 7261
IL-8 [3]: 4929
IL-10 [3]: 68
IL-12p70 [3]: 26
IL-13 [3]: 28
IL-17 [3]: 72
IP-10 [3]: 55
MCP-1 [3]: 153
RANTES [3]: 3934
TNF-α [3]: 1498

Bifidobacterium infantis [B. infantis]
Eotaxin [1]: 18
G-CSF [1]: 145
GM-CSF [1]: 123
IFN-γ [1]: 275
IL-1B [1]: 249
IL-1ra [1]: 179
IL-6 [1]: 6136
IL-8 [1]: 4265
IL-10 [1]: 55
IL-12p70 [1]: 66
IL-13 [1]: 1
IL-17 [1]: 56
IP-10 [1]: 57
MCP-1 [1]: 451
RANTES [1]: 2234
TNF-α [1]: 5728
Eotaxin [2]: 19
G-CSF [2]: 190
GM-CSF [2]: 163
IFN-γ [2]: 3073
IL-1B [2]: 422
IL-1ra [2]: 459
IL-6 [2]: 6618
IL-8 [2]: 5090
IL-10 [2]: 41
IL-12p70 [2]: 115
IL-13 [2]: 19
IL-17 [2]: 72
IP-10 [2]: 113
MCP-1 [2]: 382
RANTES [2]: 3225
TNF-α [2]: 5103
Eotaxin [3]: 32
G-CSF [3]: 151
GM-CSF [3]: 178
IFN-γ [3]: 1250
IL-1B [3]: 365
IL-1ra [3]: 434
IL-6 [3]: 3927
IL-8 [3]: 3557
IL-10 [3]: 34
IL-12p70 [3]: 47
IL-13 [3]: 22
IL-17 [3]: 65
IP-10 [3]: 88
MCP-1 [3]: 360
RANTES [3]: 2646
TNF-α [3]: 5287

Bifidobacterium longum [B. longum]
Eotaxin [1]: 32
G-CSF [1]: 938
GM-CSF [1]: 131
IFN-γ [1]: 158
IL-1B [1]: 813
IL-1ra [1]: 312
IL-6 [1]: 60895
IL-8 [1]: 9507
IL-10 [1]: 298
IL-12p70 [1]: 42
IL-13 [1]: 9
IL-17 [1]: 74
IP-10 [1]: 38
MCP-1 [1]: 80
RANTES [1]: 2325
TNF-α [1]: 5880
Eotaxin [2]: 33
G-CSF [2]: 244
GM-CSF [2]: 135
IFN-γ [2]: 671
IL-1B [2]: 408
IL-1ra [2]: 472
IL-6 [2]: 7287
IL-8 [2]: 2195
IL-10 [2]: 52
IL-12p70 [2]: 47
IL-13 [2]: 11
IL-17 [2]: 73
IP-10 [2]: 46
MCP-1 [2]: 33
RANTES [2]: 2189
TNF-α [2]: 2896
Eotaxin [3]: 28
G-CSF [3]: 386
GM-CSF [3]: 158
IFN-γ [3]: 1282
IL-1B [3]: 498
IL-1ra [3]: 461
IL-6 [3]: 2916
IL-8 [3]: 2906
IL-10 [3]: 68
IL-12p70 [3]: 33
IL-13 [3]: 19
IL-17 [3]: 69
IP-10 [3]: 42
MCP-1 [3]: 75
RANTES [3]: 1088
TNF-α [3]: 4240

Lactobacillus acidophilus [L. acidophilus]
Eotaxin [1]: 16
G-CSF [1]: 141
GM-CSF [1]: 110
IFN-γ [1]: 366
IL-1B [1]: 819
IL-1ra [1]: 181
IL-6 [1]: 10357
IL-8 [1]: 6879
IL-10 [1]: 62
IL-12p70 [1]: 299
IL-13 [1]: 5
IL-17 [1]: 63
IP-10 [1]: 77
MCP-1 [1]: 400
RANTES [1]: 2553
TNF-α [1]: 6858
Eotaxin [2]: 21
G-CSF [2]: 89
GM-CSF [2]: 127
IFN-γ [2]: 1329
IL-1B [2]: 335
IL-1ra [2]: 487
IL-6 [2]: 2095
IL-8 [2]: 1116
IL-10 [2]: 17
IL-12p70 [2]: 136
IL-13 [2]: 8
IL-17 [2]: 63
IP-10 [2]: 51
MCP-1 [2]: 112
RANTES [2]: 2353
TNF-α [2]: 1151
Eotaxin [3]: 31
G-CSF [3]: 102
GM-CSF [3]: 199
IFN-γ [3]: 2715
IL-1B [3]: 654
IL-1ra [3]: 493
IL-6 [3]: 3684
IL-8 [3]: 2004
IL-10 [3]: 24
IL-12p70 [3]: 155
IL-13 [3]: 23
IL-17 [3]: 73
IP-10 [3]: 69
MCP-1 [3]: 289
RANTES [3]: 3999
TNF-α [3]: 5663
